The structures appear in SMILES notation.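 A five-concentration, 48-hour dose response in 96-well plates underlies each endpoint, interpolated linearly between surrounding concentrations. The concentration for 50% growth inhibition is given as GI50.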 Calls of active or inactive are those of the source. No stated cut-off is given here; in the data, active = GI50 up to about 1.1 µM and inactive = higher.

Among the test systems are HCC 2998; 786-0; M14; SK-MEL-5; SK-MEL-2; K562; SK-OV-3; SF-268; SW-620; SN12C; SNB-78; NCI-H460; UACC-257; NCI-H522; SR; HCT-116; IGROV-1; HOP-92.
Holding throughout (assay): NCI anticancer screen, dose series, 48 h

With `Cc1cccc(C)c1N1C(=O)C(=O)C(c2nc3ccccc3s2)/C(=N/NC(=O)c2ccccc2O)C1=O` (centres undefined), the GI50 in the experiment on HCC 2998 was 24.6 µM (inactive); in the experiment with 786-0, 13.2 µM (inactive); with M14, 10.1 µM (inactive); in the experiment on SK-MEL-5, 16.2 µM (inactive); in the experiment on SK-MEL-2, 11 µM (inactive); in the experiment with K562, 3.8 µM (inactive). The GI50 in the experiment with SK-OV-3 is 50.7 µM (inactive); with SF-268 it was 6.75 µM (inactive); in the experiment on SW-620 it was 22.4 µM (inactive); in the experiment on SN12C, 18.4 µM (inactive); with SNB-78 it was 5.45 µM (inactive); in the experiment on NCI-H460 it was 17.7 µM (inactive). For the same molecule, the GI50 was 23.3 µM (inactive) in the experiment on UACC-257; 8.77 µM (inactive) in the experiment with NCI-H522; 8.45 µM (inactive) in the experiment on SR; 10.3 µM (inactive) in the experiment on HCT-116; 3.26 µM (inactive) in the experiment with IGROV-1; 15.7 µM (inactive) with HOP-92.
Turning to `O=C1C=CC(=O)C12CCc1ccccc12`, the GI50 in the experiment with HCC 2998 is > 100 µM (inactive); in the experiment with 786-0 it was > 100 µM (inactive); in the experiment on M14 it was > 100 µM (inactive); in the experiment with SK-MEL-5, > 100 µM (inactive); in the experiment with SK-MEL-2, > 100 µM (inactive); in the experiment with K562, 36.4 µM (inactive). Besides, the GI50 was > 100 µM (inactive) with SK-OV-3; > 100 µM (inactive) with SF-268; 64.7 µM (inactive) with SW-620; > 100 µM (inactive) in the experiment on SN12C; > 100 µM (inactive) with SNB-78; > 100 µM (inactive) in the experiment with NCI-H460. The GI50 in the experiment on UACC-257 was > 100 µM (inactive); in the experiment on NCI-H522, 16.7 µM (inactive); with HCT-116 it was > 100 µM (inactive); with IGROV-1 it was > 100 µM (inactive); with HOP-92 it was > 100 µM (inactive).
Regarding `C/C(=N/NS(=O)(=O)c1c(C)cc(C)cc1C)c1cccc[n+]1[O-]`, the GI50 with HCC 2998, in the experiment on 786-0, with M14, in the experiment with SK-MEL-5, in the experiment with K562 and with SK-OV-3 was > 100 µM (inactive) each time. The GI50 in the experiment on SF-268, in the experiment on SW-620, in the experiment with SN12C, with SNB-78, in the experiment with NCI-H460 and with UACC-257 was > 100 µM (inactive) each time. In addition, the GI50 in the experiment with NCI-H522 was 83.4 µM (inactive); in the experiment on SR it was > 100 µM (inactive); in the experiment on HCT-116, > 100 µM (inactive); in the experiment with IGROV-1, > 100 µM (inactive); with HOP-92, > 100 µM (inactive).
On to `C[C@]12CCC(=O)C(O)=C1CCC2=O`, for which the GI50 with HCC 2998, in the experiment on 786-0, with M14, with SK-MEL-5, in the experiment on SK-OV-3 and in the experiment with SF-268 was > 100 µM (inactive) in each case. Also, the GI50 with SW-620, in the experiment with SN12C, with SNB-78, with NCI-H460, with UACC-257 and in the experiment with NCI-H522 was > 100 µM (inactive) in each case. The GI50 in the experiment on SR, with HCT-116, with IGROV-1 and in the experiment on HOP-92 was > 100 µM (inactive) throughout.
`Clc1cccc(N2CCN(CCCN3CCc4c([nH]c5ccccc45)C3c3cccnc3)CC2)c1` (centres undefined): the GI50 with 786-0 was 3.29 µM (inactive); in the experiment on M14, 2.01 µM (inactive); in the experiment on SK-MEL-5, 5.32 µM (inactive); in the experiment on SK-MEL-2, 11 µM (inactive); in the experiment with K562, 3.78 µM (inactive); in the experiment on SK-OV-3 it was 14.6 µM (inactive). Moreover, the GI50 with SW-620 is 13 µM (inactive); in the experiment on SN12C it was 12.8 µM (inactive); in the experiment on SNB-78 it was 5.69 µM (inactive); with NCI-H460, 6.22 µM (inactive); with UACC-257, 4.34 µM (inactive); with NCI-H522, 11.8 µM (inactive). In addition, the GI50 in the experiment with SR was 2.29 µM (inactive); in the experiment with HCT-116, 5.78 µM (inactive); in the experiment with IGROV-1, 29.6 µM (inactive); with HOP-92, 8.69 µM (inactive).
`O=C1C(c2ccccc2)=C(c2ccccc2)C(c2ccccc2)/C1=C1\C(=O)C(c2ccccc2)=C(c2ccccc2)C1c1ccccc1` (centres undefined): the GI50 in the experiment on HCC 2998 was > 100 µM (inactive); in the experiment on 786-0, > 100 µM (inactive); with M14, 41.9 µM (inactive); in the experiment with SK-MEL-5, > 100 µM (inactive); in the experiment on SK-MEL-2 it was > 100 µM (inactive); with SK-OV-3, > 100 µM (inactive). For the same molecule, the GI50 in the experiment on SF-268, in the experiment on SW-620, with SN12C, in the experiment with SNB-78, in the experiment with NCI-H460 and with UACC-257 was > 100 µM (inactive) throughout. The GI50 in the experiment with NCI-H522, in the experiment with SR, in the experiment on HCT-116, in the experiment with IGROV-1 and with HOP-92 was > 100 µM (inactive) each time.
As for `CCOC(=O)C1(Br)S(=O)(=O)OCCOS1(=O)=O`, the GI50 in the experiment on HCC 2998, in the experiment with 786-0, with M14, in the experiment with SK-MEL-5, with SK-MEL-2 and in the experiment on K562 was > 100 µM (inactive) each time. The GI50 in the experiment with SK-OV-3, in the experiment with SF-268, in the experiment with SW-620, in the experiment on SN12C, with SNB-78 and in the experiment with NCI-H460 was > 100 µM (inactive) in each case. The GI50 in the experiment with UACC-257, in the experiment with NCI-H522, in the experiment with SR, in the experiment with HCT-116, in the experiment on IGROV-1 and in the experiment with HOP-92 was > 100 µM (inactive) in each case.
Take `Clc1ccc(-c2c(C3=NCCCN3)nnn2-c2ccccc2)cc1`: the GI50 in the experiment with HCC 2998 is > 100 µM (inactive); in the experiment with 786-0, > 100 µM (inactive); in the experiment with M14, > 100 µM (inactive); with SK-MEL-5 it was > 100 µM (inactive); with SK-MEL-2, > 100 µM (inactive); in the experiment with K562, 41.7 µM (inactive). The GI50 with SK-OV-3 is > 100 µM (inactive); in the experiment on SF-268, > 100 µM (inactive); in the experiment on SW-620, 20.2 µM (inactive); in the experiment on SN12C, > 100 µM (inactive); in the experiment with SNB-78, > 100 µM (inactive); in the experiment on NCI-H460, 33.6 µM (inactive). In addition, the GI50 in the experiment on UACC-257 was > 100 µM (inactive); in the experiment on NCI-H522, > 100 µM (inactive); in the experiment on SR, 56.1 µM (inactive); in the experiment on HCT-116, 43.1 µM (inactive); in the experiment on IGROV-1, > 100 µM (inactive); in the experiment on HOP-92 it was 34.9 µM (inactive).
As to `CCOC(=O)C1=C(Nc2ccc(Cl)cc2Cl)OCC1=O`, the GI50 with HCC 2998, in the experiment on 786-0, in the experiment on M14, with SK-MEL-2, in the experiment with K562 and in the experiment on SK-OV-3 was > 100 µM (inactive) each time. Moreover, the GI50 in the experiment on SF-268, with SW-620, in the experiment with SN12C, in the experiment on SNB-78, in the experiment on NCI-H460 and in the experiment with UACC-257 was > 100 µM (inactive) in each case. Further, the GI50 with NCI-H522, with SR, in the experiment on HCT-116, with IGROV-1 and in the experiment with HOP-92 was > 100 µM (inactive) throughout.
With `CCOC(=N)CC(=O)Nc1cccc(C)c1C`, the GI50 with HCC 2998 is > 100 µM (inactive); with 786-0 it was > 100 µM (inactive); with M14, > 100 µM (inactive); in the experiment with SK-MEL-5, > 100 µM (inactive); with SK-MEL-2, > 100 µM (inactive); in the experiment with K562 it was > 10 µM (inactive). Besides, the GI50 in the experiment with SK-OV-3 is > 100 µM (inactive); in the experiment on SF-268 it was > 100 µM (inactive); in the experiment on SW-620, > 100 µM (inactive); in the experiment with SN12C, > 100 µM (inactive); in the experiment on SNB-78, 40.3 µM (inactive); in the experiment on NCI-H460, > 100 µM (inactive). Further, the GI50 with UACC-257, in the experiment on NCI-H522, with SR, with HCT-116 and with IGROV-1 was > 100 µM (inactive) each time.
As for `CCCCCCCCCCCCCCCC(=O)N[C@H]1CCc2cc(OC)c(OC)c(OC)c2-c2ccc(SC)c(=O)cc21`, the GI50 is 0.297 µM (active) in the experiment on HCC 2998; 2.36 µM (inactive) with 786-0; 0.279 µM (active) with M14; 0.5 µM (active) in the experiment with SK-MEL-5; 1.46 µM (inactive) in the experiment on SK-MEL-2; 0.325 µM (active) in the experiment with K562. The GI50 in the experiment with SK-OV-3 is 1.67 µM (inactive); in the experiment on SF-268 it was 0.54 µM (active); in the experiment with SW-620, 0.45 µM (active); in the experiment with SN12C, 0.649 µM (active); with SNB-78, 0.492 µM (active); with NCI-H460 it was 0.376 µM (active). Further, the GI50 with UACC-257 is 0.527 µM (active); in the experiment on SR it was 0.258 µM (active); in the experiment with HCT-116 it was 0.338 µM (active); in the experiment on IGROV-1 it was 2.58 µM (inactive); in the experiment on HOP-92 it was 0.891 µM (active).
On to `C/C=C/C(=O)[C@@H](O)C(C)C`, for which the GI50 in the experiment with HCC 2998, with 786-0, in the experiment with SK-MEL-5, in the experiment on SK-MEL-2, with K562 and with SK-OV-3 was > 100 µM (inactive) throughout. Further, the GI50 in the experiment with SF-268, with SW-620, with SN12C, with SNB-78, with UACC-257 and in the experiment on NCI-H522 was > 100 µM (inactive) in each case. Also, the GI50 in the experiment on SR, with HCT-116, in the experiment with IGROV-1 and with HOP-92 was > 100 µM (inactive) throughout.

For the origin of these results see ChEMBL document CHEMBL1201862, “PubChem BioAssay data set” (2004).
